Measured values published in publication PMC10809383, “Synthesis and migrastatic activity of cytochalasin analogues lacking a macrocyclic moiety” (RSC Medicinal Chemistry, 2023).

How the values were obtained:
Assay type in all cases: cell-based
[1] = tested on: human melanoma cell line BLM; experiment: Spheroid invasion assay (migrastatic activity); conditions: 24 h; for rel. spheroid area: 10 µM, BLM spheroids in collagen, DMSO control 1.02
Experimental: Compounds 17, 20, and 22–30 were screened for their migrastatic activity using a spheroid invasion assay with the human melanoma cell line BLM.[46] Spheroids were formed and subsequently treated with cytochalasin analogues at a concentration of 10 μM for 24 h. CytB (1) and CytD (2) served as reference compounds for comparison. There was no significant increase in cell migration observed for any of the compounds tested. […] However, the effect was less profound than that of the reference compounds 1 and 2.
The spheroid invasion assay was performed following a previously published protocol.[63] Briefly, BLM cells were grown as spheroids using 3D Petri Dish (Microtissues). After 2 days of spheroid formation, 1.5 mg mL^−1 collagen solution (rat tail, collagen type I) was prepared (1.5 mg mL^−1 rat-tail collagen, 1× DMEM, 1% (v/v) FBS) and added at the bottom of a 96-well plate. Spheroids were embedded into the collagen (one spheroid per well) and covered with another layer of the gel. Collagen was polymerized at 37 °C and subsequently overlaid with a cultivation medium. Images of spheroids were taken with Leica TCS SP2 microscope (5×/0.15 dry objective; LAS X Life Science Microscope software) immediately after their seeding into collagen and again after 24 h. The area of the spheroids at 0 and 24 h was measured using FiJi (Rasband, W.S., ImageJ, NIH, Bethesda, MD, USA). Cellular invasiveness was determined as an increase in spheroid area within 24 h. Three independent experiments were conducted with at least 8 spheroids analysed in each experiment. Statistical analysis was performed in GraphPad using one-way ANOVA. For numeric data and representative images from this assay, see ESI, ^† Table S1 and Fig. S1.
Table S1: Spheroid invasion assay with BLM cell line at 10 µM concentration, 24 h.
Figure S1: Representative images of BLM cell spheroid invasion assay with or without
inhibitor. Images were taken at 0 h and 24 h. using a Leica TCS SP2 microscope (5x/0.15
dry objective). DMSO (first column) was used as a control. Scale bar 500 µm.

[2] = tested on: human melanoma cells (BLM); experiment: WST-1 viability assay, BLM cells; conditions: for IC50: Homo sapiens, 72 h treatment, WST-1 assay, 2D culture, 0–50 μM; for selectivity index (SI): MRC-5 versus BLM, 72 h, WST-1
Experimental: (§1) In addition, the cytotoxic activity of compounds 17, 20, and 22–30 was assessed by the WST-1 viability assay using BLM (human melanoma) and MRC-5 (noncancerous human fibroblasts) cells growing in a monolayer (2D cultures, Table 2) after 72 h of treatment.
(§2) Human cells from melanoma (BLM) and human lung fibroblasts (MRC-5, Merck, USA) were used to evaluate in vitro cytotoxicity of the prepared compounds. The cells were maintained at the exponential phase of growth (passaging done by trypsin–EDTA solution) in DMEM and MEM, for BLM and MRC-5, respectively, with stable L-glutamine and supplemented with 10% fetal bovine serum (Thermo Fisher Scientific, USA). The cells were kept in an incubator at 37 °C, 5% CO2 in the atmosphere, and 95% humidity.
(§3) The compound cytotoxicity was determined by a WST-1 viability assay (Merck, USA). The amount of 5000 BLM and MRC-5 cells were seeded into individual wells of 96-well plates in 100 μL of cell cultivation media and maintained in an incubator for 16 h. After this period, the cells were treated with a concentration series (0–50 μM) of the tested compounds diluted in another 100 μL of cultivation media, which was added to the wells containing cells and incubated for 72 h. Then, BLM and MRC-5 cell viability was evaluated by WST-1 agent (5% v/v solution in phenol red-free DMEM media), i.e., the cell media was discarded and 100 μL of WST-1 solution was added. After 2 h incubation, the absorbance of formazan, derived from the WST-1 tetrazolium salt was determined spectrophotometrically at 450 nm (reference at 650 nm) by a UV-vis spectrophotometer (Bio-Rad, USA). Untreated cells, cells treated only with a vehicle, and cells treated with cytochalasin B (1) and D (2) served as controls. The measurement occurred in three independent repetitions each of which consisted of three technical replicates. The data were plotted as dose–response curves from which the half-maximal inhibitory concentrations (IC50) were calculated using AAT Bioquest.

[3] = tested on: human fibroblasts (MRC-5); experiment: WST-1 viability assay, MRC-5 cells; conditions: MRC5, 72 h treatment, WST-1 assay, 2D culture, 0–50 μM
Experimental: as §1, §2, §3

Structure (SMILES) | rel. spheroid area [1] | IC50 [2] | selectivity index (SI) [2] | IC50 [3] | migrastatic activity (cell migration, in words) ([1]; 10 μM, BLM spheroid invasion)
COC(=O)[C@@]12C(=O)N[C@@H](Cc3ccccc3)[C@@H]1[C@H](C)C(C)=C[C@@H]2CCOCCc1ccccc1F [Compound 17f, Methyl (1S,3aR,4S,7S,7aR)-1-benzyl-4-(2-(2-fluorophenethoxy)ethyl)-6,7-dimethyl-3-oxo-1,2,3,4,7,7a-hexahydro-3aH-isoindole-3a-carboxylate] | 0.92 | 21 ± 4.32 µM | 1.6 | 34.5 ± 4.69 µM | 
COC(=O)[C@@]12C(=O)N[C@@H](Cc3ccccc3)[C@@H]1C(C)=C(C)[C@@H](O)[C@@H]2CCOCCc1ccccc1 [Compound 25, Methyl (1S,3aS,4R,5S,7aR)-1-benzyl-5-hydroxy-6,7-dimethyl-3-oxo-4-(2-phenethoxyethyl)-1,2,3,4,5,7a-hexahydro-3aH-isoindole-3a-carboxylate] | 1.15 | > 50 µM |  | > 50 µM | inactivity
COC(=O)[C@@]12C(=O)N[C@@H](Cc3ccccc3)[C@@H]1[C@H](C)[C@@](C)(O)[C@@H](O)[C@@H]2CCOCCc1ccc(OC)cc1 [Compound 23b, Methyl (1S,3aS,4R,5S,6R,7S,7aR)-1-benzyl-5,6-dihydroxy-4-(2-(4-methoxyphenethoxy)ethyl)-6,7-dimethyl-3-oxooctahydro-3aH-isoindole-3a-carboxylate] | 1.10 | > 50 µM |  | > 50 µM | 
COC(=O)[C@@]12C(=O)N[C@@H](Cc3ccccc3)[C@@H]1[C@H](C)[C@@](C)(O)[C@@H](O)[C@@H]2CCOCCc1ccc(Br)cc1 [Compound 23h, Methyl (1S,3aS,4R,5S,6R,7S,7aR)-1-benzyl-4-(2-(4-bromophenethoxy)ethyl)-5,6-dihydroxy-6,7-dimethyl-3-oxooctahydro-3aH-isoindole-3a-carboxylate] | 0.93 | 23 ± 2.17 µM | >2.2 | > 50 µM | 
COC(=O)[C@@]12C(=O)N[C@@H](Cc3ccccc3)[C@@H]1[C@H](C)[C@@]1(C)O[C@H]1[C@@H]2CCOCCc1ccc(Br)cc1 [Compound 22h, Methyl (1aS,2R,2aS,5S,5aR,6S,6aR)-5-benzyl-2-(2-(4-bromophenethoxy)ethyl)-6,6a-dimethyl-3-oxooctahydro-2aH-oxireno[2,3-f]isoindole-2a-carboxylate] | 0.98 | > 50 µM |  | > 50 µM | 
COC(=O)[C@@]12C(=O)N[C@@H](Cc3ccccc3)[C@@H]1C(C)=C(C)[C@@H](OC(C)=O)[C@@H]2CCOCCc1ccccc1 [Compound 28, Methyl (1S,3aS,4R,5S,7aR)-5-acetoxy-1-benzyl-6,7-dimethyl-3-oxo-4-(2-phenethoxyethyl)-1,2,3,4,5,7a-hexahydro-3aH-isoindole-3a-carboxylate] | 0.72 | > 50 µM |  | > 50 µM | 
COC(=O)[C@@]12C(=O)N[C@@H](Cc3ccccc3)[C@@H]1[C@H](C)[C@@](C)(O)[C@@H](O)[C@@H]2CCOCCc1ccccc1 [Compound 23a, Methyl (1S,3aS,4R,5S,6R,7S,7aR)-1-benzyl-5,6-dihydroxy-6,7-dimethyl-3-oxo-4-(2-phenethoxyethyl)octahydro-3aH-isoindole-3a-carboxylate] | 1.01 | 9.41 ± 2.52 µM | 2.2 | 20.9 ± 2.38 µM | 
COC(=O)[C@@]12C(=O)N[C@@H](Cc3ccccc3)[C@@H]1[C@H](C)C(C)=C[C@@H]2CCOCCc1ccc(OC)cc1 [Compound 17b, Methyl (1S,3aR,4S,7S,7aR)-1-benzyl-4-(2-(4-methoxyphenethoxy)ethyl)-6,7-dimethyl-3-oxo-1,2,3,4,7,7a-hexahydro-3aH-isoindole-3a-carboxylate] | 1.14 | 35.3 ± 4.75 µM | 1.1 | 40.5 ± 4.65 µM | 
